Measurements from publication PMC5663395, “Chemical Validation of Methionyl-tRNA Synthetase as a Druggable Target in Leishmania donovani” (ACS Infectious Diseases, 2017).

Key:
[1] = biological target: LdMetRS (Leishmania donovani, UniProt A0A3Q8IBX2); test: LdMetRS biochemical enzyme assay (BIOMOL Green); settings: Table 1; read-out: LdMetRS IC50
Description: LdMetRS Assay Development and Kinetic Parameter Determinations
Activity of the LdMetRS enzyme was determined by monitoring levels of pyrophosphate released during the first step of the enzymatic reaction. The pyrophosphate formed was converted to two inorganic phosphate molecules using a pyrophosphatase enzyme and levels of the resulting phosphate molecules measured using the BIOMOL® Green reagent (Enzo Life Sciences) 2.
Following optimization of the assay buffer and determination of the enzyme linearity, 384-well plate based assays were carried out at room temperature in a 50 μl reaction volume containing 30 mM Tris, pH 8.0, 140 mM NaCl, 30 mM KCl, 40 mM MgCl2, 0.01% (v/v) Brij-35, 1 mM DTT, 1 U/ml pyrophosphatase, 50 nM recombinant LdMetRS, and varying concentrations of substrates. Michaelis constants for the ATP and methionine substrates were determined in an end point assay using the above buffer and enzyme conditions. Data were fitted to the modified Michaelis-Menten equations […]
Equation 1 (Hill equation): […]
Equation 2 (High substrate inhibition Michaelis-Menten equation): […]
LdMetRS Inhibitor Studies
All test compounds were solubilized in 100% DMSO to a concentration of 10 mM. To generate IC50 data for the compounds, assay ready plates containing 10-point inhibitor curves (half-log serial dilutions) were prepared using an Echo® 550 (Labcyte).
Following preparation of the inhibitor curves, assays were carried out at room temperature in clear, flat bottom, polystyrene, 384-well plates (Greiner). Each assay was performed in a 50 μl reaction volume containing 30 mM Tris; pH 8.0, 140 mM NaCl, 30 mM KCl, 40 mM MgCl2, 0.01% (v/v) Brij-35, 1 mM DTT, 1 U/ml pyrophosphatase, 50 nM recombinant LdMetRS, 50 µM methionine and 100 µM […]
Assays were performed by adding 25 μl buffer with enzyme to assay plates (with buffer only added to ‘no enzyme’ control wells) before the reaction was initiated with the addition of a 25 μl mix containing methionine, ATP and pyrophosphatase to all wells. Following a 120 min reaction at room temperature the assay was stopped with the addition of 50 μl BIOMOL® Green. The BIOMOL® Green signal was allowed to develop for 30 min before the absorbance of each well was read at 650 nm using an EnVision multilabel plate reader (PerkinElmer Life Sciences). All liquid dispensing steps were carried out using a Thermo Scientific WellMate dispenser (Matrix).
ActivityBase from IDBS (version 8.0.5.4) was used for data processing and analysis. All IC50 curve fitting was undertaken using ActivityBase XE (version 7.7.1) from IDBS. A four-parameter logistic dose-response curve was utilized with prefit used for all four parameters.
For DDD806905 Kiapp determinations, data fitting to the Morrison equation (equation 3) was carried out using GraFit v6.0 (Erithacus Software). It should be noted that data for fitting to the Morrison equation was normalised to a ‘100 µM DDD806905’ control rather than a ‘no enzyme’ control as […]
Equation 3 (Morrison equation): […]
vi = K1 −−([ ] [ ]ET+IT+Ki)−([ ] [ ]ET+IT+i)[ ] [ ]TIE4T
LdMetRS Mode of Inhibition Studies
To establish the mode of inhibition of DDD806905, data sets (generated using the BIOMOL® Green assay platform previously described) were collected by varying both the inhibitor and substrate concentrations. Using GraFit v6.0 (Erithacus Software) each data set was individually fitted to the Michaelis-Menten equation or the modified high substrate inhibition Michaelis-Menten equation described above (equation 2), and the resulting Lineweaver-Burk plots were examined for diagnostic […]
Data sets were then globally fitted to the appropriate model (with equations 4 and 5 used for […]
If more than one model appeared possible, then data were fitted to both and examined for significance using the F-test function in GraFit.

[2] = system: L. donovani axenic amastigotes; test: Leishmania axenic amastigote viability assay; assay type: cell-based, Leishmania donovani; settings: Leishmania donovani; Table 1; read-out: Leishmania Axenic Amastigote EC50
Description: carried out as described above using 5%, 10% and 20% FBS in the media. To examine the effect of the methionine concentration on the potency of DDD806905 parasites were grown in the presence of drug and in the presence (or absence) of 20-fold excess methionine (0.3 g/l). IC50 curve fitting was undertaken in GraFit version 6.0 (Erithacus Software) using a four-parameter logistic dose-response curve (equation 6), with s the slope.
Leishmania Axenic Amastigote Assay
The Leishmania axenic amastigote assay was performed using the method published in Nühs et al 15.
Leishmania Intracellular Amastigote Assay
The intramacrophage Leishmania assay was performed using a modified version of the method described in De Rycker et al 16. […]
amphotericin B was included. Controls were as follows: columns 11 and 12: DMSO, columns 23 and 24: amphotericin B (final concentration 2 µM). 350 nl of compound was pre-dispensed into 384-well sterile intermediary plates. To the intermediary plates, 35 µl of THP-1 media was added and plates were shaken for >5 min to ensure complete mixing. THP-1 cells (8,000 per well, 50 µl) were plated into black clear-bottom 384-well plates (Corning) in presence of 20 nM phorbol 12-myristate 13- […]
in a humidified incubator for 75 h. The cells were then washed with 450 µl sterile phosphate buffered saline (PBS) supplemented with 1 mM CaCl2, 0.5 mM MgCl2, 0.1% (w/v) bovine serum albumin (PBS-A) and amastigotes were added to all wells at a multiplicity of infection of 5 (40,000 amastigotes per well). After 40 min at room temperature, plates were returned to the incubator.
Amastigotes were incubated in the presence of THP-1 macrophages for 16 h. Any remaining extracellular amastigotes were subsequently removed by washing with PBS-A followed by addition of 25 µl of the compound pre-dilutions using an Ipette-pro pipetting station (FluidX). The final dilution of each compound was 200-fold. Plates were incubated for 96 h and then washed (250 µl PBS-A) and fixed (4 % (v/v) formaldehyde-PBS, 30 min, room temperature). After fixation, the wells were washed with 250 µl PBS, stained (10 µg/ml DAPI, 0.4 µg/mL HCS Cellmask Deep Red in PBS + 0.1% (v/v) Triton X-100, 30 min, room temperature) and washed with 250 µl PBS. Finally, PBS + 0.05% (v/v) thimerosal was added to the wells, the plates were sealed and imaged on a high-content microscope (GE IN Cell 2000) using a 10x objective. Image analysis was carried out with GE IN Cell Analyzer 1000 Workstation using the “Multi Target Analysis” module. For each well, i) THP-1 cell count (cytotoxicity readout) and ii) average number of amastigotes per cell (potency readout) were […]

[3] = system: THP-1 lysosomes; test: Lysosomotropism assay (LysoTracker Red competition); assay type: cell-based, human; settings: PMA-differentiated THP-1 cells, 30 min
Description: calculated, both in terms of pEC50 values. MIC (minimum inhibitory concentration) values are defined as the lowest concentration tested at which maximal inhibition is reached.
THP-1 cells were differentiated in 96-well plates with PMA as described above. Following differentiation the cells were treated for 30 min with dose-response curves of test compounds in presence of 100 nM LysoTracker Red DND-99 (Thermo Fisher) and 5 µg/ml Hoechst 33342. Next cells were washed 3 times with Hanks Buffered Saline Solution (Gibco) and imaged on a Perkin Elmer Operetta system. An image analysis algorithm to measure mean Lysotracker Red DND-99 intensity per cell was developed in Columbus. Mean Intensity was normalised using a no dye control (100% effect) and DMSO treated wells stained with Lysotracker Red DND-99 (0% effect control). Dose-response curves were fitted for the test compounds using a four-parameter equation (equation 5 above) and constrained to 0 and 100% where necessary.
To measure the pKa of DDD806905, a fast UV-metric method was performed using a Sirius T3 instrument (Sirius Analytical, U.K.). The calculation of the pKa was determined using the Sirius T3 refine software (Sirius Analytical, U.K.). In brief, the UV-metric pKa method is based on measuring pH during an acid-base titration and monitoring UV absorbance shift. The ionisation curve (Bjerrum curve) was then used to determine the pH where exactly 50 % of neutral and 50 % of ionised species was present. DDD806905 must be fully dissolved throughout the titration and so the titration is set to start at the pH where DDD806905 is in its fully ionised state. The appearance of precipitate was monitored throughout the experiment by a turbidity sensing device. […] The pKas of DDD806905 was determined at the pH where there was maximal change in UV absorbance with respect to pH. […]
LogD7.4 values were quantified using a Sirius T3 instrument (Sirius Analytical, U.K.). […] The instrument software calculated the pH of each data point using mass and charge balance equations and then fitted this theoretical data to the experimental data. […]

[4] = system: Leishmania donovani liver parasite burden; test: Mouse visceral leishmaniasis efficacy model; settings: 30 mg/kg oral once daily for 10 days

Chain of LdMetRS (A0A3Q8IBX2 entry or part of it): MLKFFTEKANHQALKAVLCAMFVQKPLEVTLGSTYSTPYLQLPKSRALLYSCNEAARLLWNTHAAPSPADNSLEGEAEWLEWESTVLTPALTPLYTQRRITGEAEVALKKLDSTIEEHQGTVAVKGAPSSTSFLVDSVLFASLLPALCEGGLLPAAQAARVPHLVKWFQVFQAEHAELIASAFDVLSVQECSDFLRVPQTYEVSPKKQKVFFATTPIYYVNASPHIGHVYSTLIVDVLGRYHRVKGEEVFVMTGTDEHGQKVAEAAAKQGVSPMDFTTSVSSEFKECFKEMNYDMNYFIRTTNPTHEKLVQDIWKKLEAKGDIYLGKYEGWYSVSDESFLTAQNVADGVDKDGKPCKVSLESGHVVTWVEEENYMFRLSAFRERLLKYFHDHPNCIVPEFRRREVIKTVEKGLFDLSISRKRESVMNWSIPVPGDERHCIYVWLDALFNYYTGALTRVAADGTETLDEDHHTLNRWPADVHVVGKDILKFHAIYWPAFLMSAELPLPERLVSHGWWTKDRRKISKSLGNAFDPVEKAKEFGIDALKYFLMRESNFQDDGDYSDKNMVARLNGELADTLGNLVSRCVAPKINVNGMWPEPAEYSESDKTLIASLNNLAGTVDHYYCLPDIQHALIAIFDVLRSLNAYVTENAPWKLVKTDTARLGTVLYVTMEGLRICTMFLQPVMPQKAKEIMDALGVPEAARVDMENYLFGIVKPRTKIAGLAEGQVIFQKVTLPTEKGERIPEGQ

IC50 [1] | EC50 [2] | SMILES | competition with lysotracker red accumulation in THP-1 lysosomes [3] | reduction (knock-down) of liver parasite burden (LDU) vs vehicle [4]
1.9 µM | 19 µM | O=c1nc(NCCCNS(=O)(=O)c2cc(Cl)cc(Cl)c2)[nH]c2ccccc12 [Compound 28] | does not compete with lysotracker red | –
– | – | CCCCCCCCCCCCCCCCOP(=O)([O-])OCC[N+](C)(C)C [miltefosine, reference compound] | – | 99.6%
